This passage reports melting point results from a melting point compilation (Tetko et al.).

The melting point is the temperature of the solid-liquid transition.

Take `CC1(C(=O)O)CCCN(C(=O)c2ccccc2)C1` (configuration not stated): the melting point lay in the range of 151 to 153 °C.

In turn, `O=C(O)c1cccc(Oc2ccc(Cl)cc2)c1` gave a melting point of 164 to 166 °C.

Molecule `O=C(c1cc(Br)c[nH]1)C(Cl)(Cl)Cl` had a melting point of 125 to 127 °C.

`O=S(=O)(F)c1ccc2cn[nH]c2c1` came in with a melting point of 219 to 221 °C.

Turning to `Cc1ccc(N)cc1S(=O)(=O)N(C)C`, the melting point was in the range of 80 to 84 °C.

`O=C(O)c1ccc(F)c(S(=O)(=O)N2CCOCC2)c1` displayed a melting point of 175 to 178 °C.

Molecule `COCCN1C(=O)C(=O)c2ccc(Br)cc21` gave a melting point of 139 to 141 °C.

In turn, `O=C(NC=C(Cl)Cl)c1cccc(Br)c1` came in with a melting point of 91 to 93 °C.

Molecule `COC(=O)c1ccc(-c2csc(N)n2)cc1` registered a melting point of 239 to 241 °C.

On to `CC(C)c1sc(N)nc1-c1ccccc1`, for which the melting point lay in the range of 231 to 233 °C.

The molecule `CS(=O)(=O)c1ccc(OCCCl)cc1` registered a melting point of 85 to 87 °C.

Turning to `O=C(O)CCCNC(=O)c1ccc(F)cc1`, the melting point fell in the range of 93 to 95 °C.

As for `O=C(O)c1c[nH]c(-c2cccc([N+](=O)[O-])c2)n1`, the melting point lay within 184 to 186 °C.

With `N=c1sccn1CC(=O)O`, the melting point was in the range of 243 to 247 °C.

Molecule `O=Cc1cccc2c1OCO2` showed a melting point of 34 to 36 °C.

In turn, `N#Cc1cc(Br)ccc1N=C=O` came in with a melting point of 97 to 99 °C.

Consider `Cc1ccc(N)cc1S(=O)(=O)Nc1ccc(Cl)cc1`, for which the melting point fell in the range of 144 to 146 °C.

Molecule `NC1(C(F)(F)F)CCC(O)CC1` (configuration not stated) registered a melting point of 98 to 100 °C.

As to `Cc1cccc(-c2nc(CCl)no2)c1`, the melting point was 44 to 46 °C.

On to `Cc1csc(=O)[nH]1`, for which the melting point lay within 98 to 100 °C.

`CC(=O)NCCOc1ccc(N)cc1` registered a melting point of 92 to 94 °C.

The molecule `Cn1ccc(N2CCCC(N)C2=O)n1` (configuration not stated) displayed a melting point of 79 to 81 °C.

As for `Nc1ccc(C(=O)N2CC(=O)Nc3ccccc32)cc1`, the melting point fell in the range of 286 to 288 °C.

With `Nc1ccc(C(=O)OC2CCCC2)cc1`, the melting point was 55 to 57 °C.

Regarding `C/C=C/c1cc(C(=O)O)cc(OC)c1OC`, the melting point was in the range of 142 to 144 °C.

In turn, `CCOC(=O)C(NC(C)=O)C(C)=O` (configuration not stated) came in with a melting point of 44 to 46 °C.

In turn, `CC(C)(C)Cc1nc(-c2cccc(C(=O)O)c2)no1` displayed a melting point of 160 to 162 °C.

In turn, `O=C(O)COc1ccc(F)cc1Br` gave a melting point of 142 to 144 °C.

In turn, `COc1cccc2c1CCC2=O` had a melting point of 105 to 107 °C.

`O=C1NCC2(CCCC2)O1` came in with a melting point of 89 to 91 °C.

For `Nc1nc2c(s1)CC(c1ccccc1)CC2` (configuration not stated), the melting point was 181 to 183 °C.

Consider `Cn1c(=O)n(C)c2cc(S(=O)(=O)Cl)ccc21`, for which the melting point was in the range of 176 to 178 °C.

As for `CCOc1cccc2c1OCC(C(=O)O)C2` (configuration not stated), the melting point was in the range of 160 to 162 °C.

For the molecule `Cn1ccc(N2CCCC(Br)C2=O)n1` (configuration not stated), the melting point was 104 to 106 °C.

The molecule `O=C(O)C1=NN(c2nc3ccccc3[nH]2)C(=O)CC1` returned a melting point of 328 to 330 °C.

In turn, `CCOC(=O)c1sc2[nH]cnc(=O)c2c1C` showed a melting point of 233 to 235 °C.

Regarding `O=C(O)CCCn1cc(Br)cn1`, the melting point lay in the range of 94 to 96 °C.

The molecule `NC(=O)c1cc(=NCC2CCCO2)cc[nH]1` (configuration not stated) returned a melting point of 123 to 125 °C.

Molecule `N#Cc1c(F)cccc1Oc1ccc(N)cc1` gave a melting point of 156 to 158 °C.

In turn, `CC1(C(=O)O)COC(=O)OC1` gave a melting point of 159 to 161 °C.

`CCc1nnc(NC(=O)CCl)s1` yielded a melting point of 101 to 103 °C.

As for `Cc1c(C(=O)O)sc2nc[nH]c(=O)c12`, the melting point is 248 to 252 °C.

`CN(C)C(=O)COc1cccc(N)c1` showed a melting point of 100 to 102 °C.

The molecule `COCCn1ncc2ccc(N)cc21` returned a melting point of 86 to 88 °C.

Consider `CC(=O)c1ccc(N(C)C)cc1`, for which the melting point is 105 to 107 °C.

`O=C(O)C(NCc1ccccc1)c1ccc(C(F)(F)F)cc1` (configuration not stated) gave a melting point of 230 to 232 °C.

Turning to `Nc1ccccc1C(=O)Nc1ccncc1`, the melting point fell in the range of 144 to 146 °C.

In turn, `O=C(O)CNC1=NS(=O)(=O)c2ccccc21` had a melting point of 160 to 162 °C.

In turn, `C#CCNS(=O)(=O)c1ccc(C(=O)O)cc1` yielded a melting point of 149 to 151 °C.

Molecule `CCOC(=O)c1c(C)n(C2CCCC2)c2ccc(O)cc12` came in with a melting point of 228 to 230 °C.

Regarding `Nc1nc2cc(Br)ccc2o1`, the melting point fell in the range of 172 to 174 °C.

`O=C(O)C1CCN(C(=O)CSc2nnc(-c3ccccc3)o2)CC1` showed a melting point of 104 to 106 °C.

Turning to `CCC(c1ccccc1)c1nnc(N)s1` (configuration not stated), the melting point was 184 to 186 °C.

As for `Nc1ccccc1N1CCc2ccccc2C1`, the melting point was in the range of 114 to 116 °C.

Regarding `Cn1cc(S(=O)(=O)N2CCCCC2)cc1C(=O)O`, the melting point fell in the range of 236 to 238 °C.

On to `CC(=O)NC(C(=O)O)C1CCCC1` (configuration not stated), for which the melting point is 172 to 174 °C.

`CCOC(=O)c1sc(N)c(C(N)=O)c1C` displayed a melting point of 197 to 199 °C.

`C#CCOc1ccccc1C#N` yielded a melting point of 77 to 79 °C.

The molecule `CN(C)S(=O)(=O)Nc1ccccc1Br` yielded a melting point of 78 to 80 °C.

Molecule `CCN(CC)S(=O)(=O)c1c[nH]c(C(=O)O)c1` gave a melting point of 250 to 252 °C.

As to `CC(C(=O)O)n1cccn1` (configuration not stated), the melting point was in the range of 96 to 98 °C.

For `CC(=O)c1nc(-c2ccccc2)cs1`, the melting point lay within 77 to 79 °C.

In turn, `CC1CCCC(C)N1S(=O)(=O)c1ccsc1C(=O)O` (configuration not stated) had a melting point of 150 to 152 °C.

In turn, `COc1cc(C=C2CCc3c2nc2ccccc2c3C(=O)O)cc(OC)c1OC` came in with a melting point of 246 to 248 °C.

Molecule `Cn1ccc(C(=O)c2ccc(F)cc2)n1` gave a melting point of 68 to 70 °C.

In the case of `Cc1cccc(-n2cc(C(=O)CCl)nn2)c1`, the melting point lay in the range of 141 to 143 °C.

Molecule `O=C(O)CNc1nc2ccccc2s1` displayed a melting point of 174 to 176 °C.

`Nc1ccc2[nH]c(C(F)F)nc2c1`: the melting point was in the range of 129 to 131 °C.

The molecule `CC(C)(C)c1cc(N)n(C(C)(C)C)n1` returned a melting point of 69 to 71 °C.

`Cc1c(-c2cccnc2)noc1N` came in with a melting point of 177 to 179 °C.

In turn, `COc1ccccc1-c1nn(Cc2ccccc2)cc1C(=O)O` returned a melting point of 152 to 154 °C.

On to `Cc1nc(-c2ccccc2Cl)sc1C(=O)O`, for which the melting point is 217 to 219 °C.

Molecule `CCOC(=O)c1cc([N+](=O)[O-])cnc1C` gave a melting point of 45 to 52 °C.

Molecule `Nc1cccc(C(=O)Nc2cccc(C(F)(F)F)c2)c1` showed a melting point of 114 to 115 °C.

The molecule `COc1ccccc1NC(=O)c1ccccc1NC(=O)CCC(=O)O` returned a melting point of 127 to 129 °C.

Molecule `CCOC(=O)c1cnc(C)c(C(=O)O)c1` showed a melting point of 199 to 201 °C.

In turn, `Cc1sc2nc(CN3CCCC3)nc(Cl)c2c1C` gave a melting point of 68 to 72 °C.

Turning to `CCOC(=O)c1sc2ncnc(Cl)c2c1C`, the melting point fell in the range of 113 to 115 °C.

In turn, `Nc1nc(-c2cccc([N+](=O)[O-])c2)cs1` had a melting point of 186 to 188 °C.

In turn, `Nc1cc(C(=O)O)c(Br)cn1` registered a melting point of 276 to 278 °C.

In turn, `Nc1nc(-c2ccc([N+](=O)[O-])cc2)no1` displayed a melting point of 294 to 296 °C.

`CC(C(=O)O)c1ccc(S(C)(=O)=O)cc1` (configuration not stated) came in with a melting point of 91 to 93 °C.

The molecule `ClCc1nc(-c2ccccn2)no1` gave a melting point of 102 to 104 °C.

Consider `CN1CC(=O)Nc2ccccc2C1=O`, for which the melting point was in the range of 249 to 251 °C.

Molecule `O=C(O)CCc1ccc2c(c1)OCCCO2` came in with a melting point of 81 to 83 °C.

In turn, `O=C1OCCN1c1ccc(O)cc1` came in with a melting point of 177 to 179 °C.

`CCc1ccc(C(=O)O)cc1S(C)(=O)=O`: the melting point is 174 to 176 °C.

`Nc1cccc(NC(=O)C2CCCCC2)c1` yielded a melting point of 139 to 141 °C.

`C1CCC(c2nnn[nH]2)C1`: the melting point lay within 119 to 121 °C.

`Cc1cc(C)c2c(Cl)c(C(=O)O)sc2c1` had a melting point of 286 to 288 °C.

As to `CC(C)(C)OC(=O)NC1CCN(Cc2cc(Cl)cc(Cl)c2)CC1`, the melting point was in the range of 145 to 147 °C.

With `N#Cc1c(N2CCOCC2)n[nH]c1N`, the melting point was in the range of 195 to 197 °C.

Take `N#CC(Cl)(Cl)c1nc2ccccc2s1`: the melting point lay within 66 to 68 °C.

Molecule `O=C(O)c1cc(-c2c(F)cccc2F)no1` registered a melting point of 181 to 183 °C.

The molecule `CCc1cc(O)ncn1` came in with a melting point of 135 to 137 °C.

In turn, `N#CCCn1cnc2ccccc2c1=O` displayed a melting point of 142 to 144 °C.

`O=C(O)CSc1nnc(-c2ccccc2F)n1-c1ccccc1` displayed a melting point of 210 to 212 °C.

As to `CC(C)CC(N)c1nc(-c2nnc[nH]2)no1` (configuration not stated), the melting point lay within 203 to 205 °C.

`CCc1nc2sccc2c(=O)n1N` had a melting point of 132 to 134 °C.

`O=C(O)c1cc(Br)c[nH]1` gave a melting point of 169 to 171 °C.

`CCOC(=O)c1c(N)sc2ccccc12`: the melting point was 105 to 107 °C.

`COC(=O)CC1=NC(=O)CS1` yielded a melting point of 184 to 186 °C.

With `CC(C)(C)c1ccc(NC(N)=S)cc1`, the melting point fell in the range of 153 to 155 °C.

In turn, `O=C(O)C1CCCN1C(=O)C1CCCC1` (configuration not stated) had a melting point of 125 to 127 °C.

The molecule `NS(=O)(=O)c1nccs1` displayed a melting point of 119 to 121 °C.

Consider `Nc1cc2c(cc1C(=O)O)OCCO2`, for which the melting point was 189 to 191 °C.

For `Nc1cccc(C(=O)N2CCC(CO)CC2)c1`, the melting point lay in the range of 155 to 157 °C.

In turn, `NNC(=O)COc1ccccc1O` returned a melting point of 152 to 154 °C.

Turning to `O=C(O)C=Cc1cncc(O)c1`, the melting point lay within 243 to 245 °C.

Take `CC(O)c1cc2ccccc2o1` (configuration not stated): the melting point is below 17 °C.

Molecule `N#CCC(=O)NCc1ccccc1` had a melting point of 125 to 127 °C.

Turning to `COc1ccc(C)c(N)c1`, the melting point fell in the range of 43 to 46 °C.

`CC1CCC(N2CC(C(=O)O)CC2=O)CC1` (configuration not stated) displayed a melting point of 143 to 145 °C.

`CCOC(=O)c1ccc(NC(=O)CCl)cc1` had a melting point of 38 to 40 °C.

`CS(=O)(=O)N1CCC(CN)CC1` came in with a melting point of 63 to 65 °C.

Regarding `NCCC(O)(c1ccccc1)C(F)(F)F` (configuration not stated), the melting point was in the range of 110 to 112 °C.

As for `O=S(=O)(c1ccc2c(c1)CCN2)N1CCOCC1`, the melting point is 173 to 177 °C.

Take `COc1ccccc1S(=O)(=O)Cl`: the melting point was 115 to 119 °C.

As for `Cc1cnc(-c2cccc(C(=O)O)c2)s1`, the melting point lay within 210 to 212 °C.

Consider `COc1ccc(Br)nc1C(F)(F)F`, for which the melting point was in the range of 32 to 34 °C.

Regarding `CS(=O)(=O)c1ccc(-c2nc(CCl)co2)cc1`, the melting point lay within 129 to 131 °C.

With `Cc1ccc(C(O)CN)cc1` (configuration not stated), the melting point lay in the range of 70 to 72 °C.
